Results on 21 compounds are retold here after patent publication US7973034B2, “Amide, aryl sulfonamide, aryl urea, and α,β-diketone derived carboxylesterase inhibitors, and their methods of use” (priority 2003, dated 2011).

Where two headings read alike, the source gives them in different places. Some results are limits rather than exact numbers.

Common to all, as to experiment: biochemical
Assay [1] deals with human butyrylcholinesterase (hBuChE) (Homo sapiens, UniProt P06276).
In assay [2] the target is T1, human liver carboxylesterase (hCE1) (Homo sapiens, UniProt P23141).
T1 sequence (P23141 18-567): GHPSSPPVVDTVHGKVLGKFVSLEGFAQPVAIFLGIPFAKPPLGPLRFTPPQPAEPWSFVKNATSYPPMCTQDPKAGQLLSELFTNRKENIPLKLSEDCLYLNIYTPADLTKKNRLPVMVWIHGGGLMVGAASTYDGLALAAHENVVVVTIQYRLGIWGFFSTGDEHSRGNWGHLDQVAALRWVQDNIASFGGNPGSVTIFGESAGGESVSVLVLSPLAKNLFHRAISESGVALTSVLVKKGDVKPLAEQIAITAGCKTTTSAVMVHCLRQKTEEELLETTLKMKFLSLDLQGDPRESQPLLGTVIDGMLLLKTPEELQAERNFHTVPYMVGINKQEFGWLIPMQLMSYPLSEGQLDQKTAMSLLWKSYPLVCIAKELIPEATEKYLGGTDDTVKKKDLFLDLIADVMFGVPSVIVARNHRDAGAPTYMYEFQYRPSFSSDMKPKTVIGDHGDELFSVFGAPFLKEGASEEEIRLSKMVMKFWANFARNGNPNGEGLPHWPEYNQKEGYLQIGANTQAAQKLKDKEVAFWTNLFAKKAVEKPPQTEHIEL
The assay is classed as biochemical.

Assay [3] deals with T2, rabbit liver carboxylesterase (rCE) (Oryctolagus cuniculus, UniProt P12337).
T2 sequence (P12337 19-565): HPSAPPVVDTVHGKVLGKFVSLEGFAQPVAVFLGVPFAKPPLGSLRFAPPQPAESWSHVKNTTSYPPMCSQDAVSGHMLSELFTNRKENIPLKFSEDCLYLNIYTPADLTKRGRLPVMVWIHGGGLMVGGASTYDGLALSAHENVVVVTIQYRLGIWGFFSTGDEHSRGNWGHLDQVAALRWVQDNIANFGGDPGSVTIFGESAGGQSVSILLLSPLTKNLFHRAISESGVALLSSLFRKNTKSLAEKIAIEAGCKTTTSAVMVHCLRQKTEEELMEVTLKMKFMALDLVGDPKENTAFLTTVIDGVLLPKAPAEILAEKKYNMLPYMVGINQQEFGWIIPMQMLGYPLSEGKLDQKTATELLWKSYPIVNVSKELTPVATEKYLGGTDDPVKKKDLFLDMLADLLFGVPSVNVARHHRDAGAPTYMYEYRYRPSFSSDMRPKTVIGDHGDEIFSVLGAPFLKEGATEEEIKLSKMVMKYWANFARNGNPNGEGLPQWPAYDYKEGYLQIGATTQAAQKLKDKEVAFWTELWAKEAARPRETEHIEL
Type of assay: biochemical.

Assay [4] has as its target T3, human acetylcholinesterase (hAcChE) (Homo sapiens, UniProt P22303).
T3 construct: purchased Sigma Biochemicals (St. Louis, Mo.)
Type of assay: biochemical. The protocol: Data was transferred to GraphPad Prism software, and Ki values were calculated as described in the Example above.

For assay [5], the target named is T4, human small intestine carboxylesterase (hiCE) (Homo sapiens, UniProt O00748).
T4 sequence (O00748 27-559): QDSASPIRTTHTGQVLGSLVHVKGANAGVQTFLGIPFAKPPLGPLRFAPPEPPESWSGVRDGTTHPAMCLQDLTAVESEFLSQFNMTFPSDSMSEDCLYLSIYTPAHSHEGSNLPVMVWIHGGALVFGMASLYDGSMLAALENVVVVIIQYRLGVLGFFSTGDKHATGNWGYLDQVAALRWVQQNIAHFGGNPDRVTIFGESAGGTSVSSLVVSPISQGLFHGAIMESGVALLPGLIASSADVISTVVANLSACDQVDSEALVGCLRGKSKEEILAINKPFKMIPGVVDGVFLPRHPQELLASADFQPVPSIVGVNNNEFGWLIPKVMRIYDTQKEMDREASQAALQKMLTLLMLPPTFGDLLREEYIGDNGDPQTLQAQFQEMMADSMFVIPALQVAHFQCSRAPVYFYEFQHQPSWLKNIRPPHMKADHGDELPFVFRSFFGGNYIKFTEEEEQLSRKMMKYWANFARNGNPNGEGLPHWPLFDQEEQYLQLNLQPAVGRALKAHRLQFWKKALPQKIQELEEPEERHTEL
The assay is classed as biochemical.

Setting [6] is: butyrylthiocholine as substrate, Table 6, read-out: hBuChE Ki.
Setting [7] is: o-NPA as substrate, Table 6, read-out: hCE1 Ki ± SE.
The mark [8] stands for this setting: o-NPA as substrate, Table 6, read-out: rCE Ki ± SE.
[9] abbreviates: acetylthiocholine as substrate, Table 6, read-out: hAcChE Ki.
Where [10] appears, read: o-NPA as substrate, Table 6, read-out: hiCE Ki ± SE.

Sequence of human butyrylcholinesterase (hBuChE) (P06276 29-602): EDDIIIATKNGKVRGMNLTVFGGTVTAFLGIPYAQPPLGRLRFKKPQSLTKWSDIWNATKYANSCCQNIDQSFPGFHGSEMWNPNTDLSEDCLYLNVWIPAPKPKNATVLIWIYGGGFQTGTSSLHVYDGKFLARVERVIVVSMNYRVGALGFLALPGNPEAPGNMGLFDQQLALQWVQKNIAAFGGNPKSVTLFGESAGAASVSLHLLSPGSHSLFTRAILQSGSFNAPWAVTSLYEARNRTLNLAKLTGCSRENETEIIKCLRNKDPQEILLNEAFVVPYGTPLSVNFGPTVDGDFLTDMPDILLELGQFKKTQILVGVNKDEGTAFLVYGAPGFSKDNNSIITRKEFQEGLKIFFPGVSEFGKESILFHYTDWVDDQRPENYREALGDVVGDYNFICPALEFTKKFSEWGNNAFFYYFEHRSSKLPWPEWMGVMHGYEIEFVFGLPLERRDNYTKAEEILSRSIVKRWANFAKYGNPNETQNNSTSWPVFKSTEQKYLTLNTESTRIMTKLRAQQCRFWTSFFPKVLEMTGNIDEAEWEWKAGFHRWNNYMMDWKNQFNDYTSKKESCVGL
T3 sequence (P22303 32-614): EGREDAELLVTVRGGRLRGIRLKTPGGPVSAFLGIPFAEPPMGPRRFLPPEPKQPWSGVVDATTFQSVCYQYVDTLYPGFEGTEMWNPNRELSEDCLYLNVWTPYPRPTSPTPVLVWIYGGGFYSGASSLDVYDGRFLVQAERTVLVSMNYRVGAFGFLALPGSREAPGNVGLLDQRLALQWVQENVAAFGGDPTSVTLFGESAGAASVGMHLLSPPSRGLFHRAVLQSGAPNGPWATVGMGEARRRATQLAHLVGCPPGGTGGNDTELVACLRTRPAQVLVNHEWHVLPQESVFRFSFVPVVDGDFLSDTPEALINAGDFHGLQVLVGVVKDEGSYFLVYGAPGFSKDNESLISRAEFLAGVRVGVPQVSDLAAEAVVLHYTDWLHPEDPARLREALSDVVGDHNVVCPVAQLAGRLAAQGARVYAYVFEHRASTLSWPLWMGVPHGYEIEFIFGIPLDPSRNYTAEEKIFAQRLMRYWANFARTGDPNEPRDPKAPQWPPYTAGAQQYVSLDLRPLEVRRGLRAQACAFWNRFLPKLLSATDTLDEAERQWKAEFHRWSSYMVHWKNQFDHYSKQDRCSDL

With `O=C(C(=O)c1ccc(Br)c([N+](=O)[O-])c1)c1ccc(Br)c([N+](=O)[O-])c1` [Compound 4, 1,2-bis(4-bromo-3-nitrophenyl)ethane-1,2-dione], the inhibition constant (Ki) – broadly, the dissociation constant of the complex between target and ligand, obtained from inhibition or displacement – was above 100 µM in assay [1] (setting [6]); above 100 µM in assay [2] (setting [7]); 0.0087 ± 0.0013 µM in assay [3] (setting [8]); above 100 µM in assay [4]; above 100 µM in assay [5].
Take `COc1ccc(C(=O)C(=O)c2ccccc2Cl)cc1OC` [Compound 8, 1-(2-chlorophenyl)-2-(3,4-dimethoxyphenyl)ethane-1,2-dione]: the Ki in assay [1] was above 100 µM; in assay [2] (setting [7]) it was 3.3 µM; in assay [3] (setting [8]), 0.036 ± 0.012 µM.
Take `O=C(C(=O)c1cc(Br)ccc1O)c1cc(Br)ccc1O` [Compound 9, 1,2-bis(5-bromo-2-hydroxyphenyl)ethane-1,2-dione]: the inhibition constant (Ki) was above 100 µM in assay [1] (setting [6]), above 100 µM in assay [2], 0.0535 ± 0.0094 µM in assay [3] (setting [8]) and above 100 µM in assay [4].
For `O=C(C(=O)c1ccc(O)cc1O)c1ccc(O)cc1O` [Compound 10, 1,2-bis(2,4-dihydroxyphenyl)ethane-1,2-dione], the Ki in assay [1] is above 100 µM; in assay [2] (setting [7]), above 100 µM; in assay [3] (setting [8]) it was above 100 µM; in assay [4] (setting [9]), above 100 µM; in assay [5] (setting [10]), 1.73 µM.
In the case of `O=C(C(=O)c1ccc([N+](=O)[O-])cc1[N+](=O)[O-])c1ccccc1` [Compound 11, 1-(2,4-dinitrophenyl)-2-phenylethane-1,2-dione], the Ki in assay [1] (setting [6]) is above 100 µM; in assay [2] (setting [7]) it was above 100 µM; in assay [3] (setting [8]), 0.52 ± 0.031 µM; in assay [4] it was above 100 µM.
Regarding `O=C(C(=O)c1c(Cl)c(Cl)c(Cl)c(Cl)c1Cl)c1c(F)c(F)c(F)c(F)c1F` [Compound 12, 1-(pentachlorophenyl)-2-(pentafluorophenyl)ethane-1,2-dione], the Ki is above 100 µM in assay [1] (setting [6]), 1.69 µM in assay [2] (read-out: hCE1 Ki ± SE), 0.823 ± 0.215 µM in assay [3] (setting [8]) and above 100 µM in assay [4].
Take `CN(C)c1ccc(C(=O)C(=O)c2ccc(N(C)C)cc2)cc1` [Compound 13, 1,2-bis[4(dimethylamino)phenyl]ethane-1,2-dione]: the Ki in assay [1] (setting [6]) is above 100 µM; in assay [2] (setting [7]), above 100 µM; in assay [3] (setting [8]), 2.4 µM; in assay [4] (setting [9]) it was above 100 µM; in assay [5] (setting [10]), above 100 µM.
On to `O=C(C(=O)c1ccc(Br)cc1)c1ccc(Br)cc1` [Compound 15, 1,2-bis(4-bromophenyl)ethane-1,2-dione], for which the Ki in assay [1] is above 100 µM; in assay [2] (setting [7]), above 100 µM; in assay [3] (setting [8]), 0.0041 ± 0.0005 µM; in assay [4] (setting [9]) it was above 100 µM.
With `O=C(C(=O)c1ccc(Cl)cc1)c1ccc(Cl)cc1` [Compound 18, 1,2-bis(4-chlorophenyl)ethane-1,2-dione], the Ki was above 100 µM in assay [1], above 100 µM in assay [2] (setting [7]), 0.0141 ± 0.0025 µM in assay [3] (setting [8]) and above 100 µM in assay [4] (setting [9]).
For `COc1ccc(C(=O)C(=O)c2ccc(OC)cc2)cc1` [Compound 21, 1,2-bis(4-methoxyphenyl)ethane-1,2-dione], the inhibition constant Ki is above 100 µM in assay [1], 3.41 µM in assay [2] (setting [7]), 0.58 ± 0.157 µM in assay [3] (setting [8]) and above 100 µM in assay [4] (setting [9]).
As to `O=C1C=Cc2ccccc2C1=O` [Compound 29, Naphthalene-1,2-dione], the “inhibition of hCE1” value in assay [2] was “inhibition”. Also, the “inhibition of rCE” value in assay [3] is given as “inhibition”. Also, the “inhibition of hAcChE” value in assay [4] is “inhibited”. Further, the “inhibition of hiCE” value in assay [5] was “inhibition”.
With `O=C(C(=O)c1ccccc1Cl)c1ccccc1Cl` [Compound 30, 1,2-bis(2-chlorophenyl)ethane-1,2-dione], the Ki in assay [1] (setting [6]) is above 100 µM; in assay [2] (read-out: hCE1 Ki ± SE), 1.65 µM; in assay [3] (setting [8]), 0.22 ± 0.037 µM; in assay [4], above 100 µM.
With `O=C(C(=O)c1ccc(Cl)cc1)c1ccccc1` [Compound 31, 1-(4-chlorophenyl)-2-phenylethane-1,2-dione], the Ki in assay [1] was above 100 µM; in assay [2] (setting [7]), 0.0474 ± 0.0068 µM; in assay [3] (setting [8]), 0.0239 ± 0.0029 µM; in assay [4] (setting [9]) it was above 100 µM.
Take `Cc1ccc(C(=O)C(=O)c2ccccc2)cc1` [Compound 32, 1-(4-methylphenyl)-2-phenylethane-1,2-dione]: the Ki was above 100 µM in assay [1] (setting [6]), 0.125 ± 0.015 µM in assay [2] (setting [7]), 0.119 ± 0.02 µM in assay [3] (setting [8]) and above 100 µM in assay [4] (setting [9]).
On to `COc1cccc(C(=O)C(=O)c2cccc(OC)c2)c1` [Compound 33, 1,2-bis(3-methoxyphenyl)ethane-1,2-dione], for which the figures for the Ki in assay [1], in assay [2] (setting [7]) and in assay [3] (setting [8]) were above 100 µM, 1.54 µM and 0.0721 ± 0.0091 µM, respectively.
Turning to `O=C(C(=O)c1cccc([N+](=O)[O-])c1)c1cccc([N+](=O)[O-])c1` [Compound 34, 1,2-bis(3-nitrophenyl)ethane-1,2-dione], the Ki is above 100 µM in assay [1] (setting [6]), 18.1 µM in assay [2] (setting [7]), 0.267 ± 0.03 µM in assay [3] (read-out: rCE Ki ± SE) and above 100 µM in assay [4].
Regarding `O=C(C(=O)c1ccc(O)cc1)c1ccc(O)cc1` [Compound 35, 1,2-bis(4-hydroxyphenyl)ethane-1,2-dione], the Ki in assay [1] is above 100 µM; in assay [2] (setting [7]), above 100 µM; in assay [3] (setting [8]), above 100 µM; in assay [4] (setting [9]), above 100 µM; in assay [5] (setting [10]) it was 1.2 µM.
On to `O=C(C(=O)c1ccc(O)c([N+](=O)[O-])c1)c1ccc(O)c([N+](=O)[O-])c1` [Compound 36, 1,2-bis(4-hydroxy-3-nitrophenyl)ethane-1,2-dione], for which the inhibition constant (Ki) in assay [1] (setting [6]), in assay [3], in assay [4] and in assay [5] was above 100 µM each time.
`COc1ccc(C(=O)C(=O)c2ccc(OC)c([N+](=O)[O-])c2)cc1[N+](=O)[O-]` [Compound 37, 1,2-bis(4-methoxy-3-nitrophenyl)ethane-1,2-dione]: the Ki in assay [1] (setting [6]), in assay [2], in assay [4] and in assay [5] was above 100 µM throughout.
Take `O=C(C(=O)c1ccc(C(=O)C(=O)c2ccccc2)cc1)c1ccccc1` [Compound 38, 1-{4-[oxo(phenyl)acetyl]phenyl}-2-phenylethane-1,2-dione]: the Ki in assay [3] (setting [8]) is 0.0061 ± 0.0006 µM; in assay [4] (setting [9]) it was above 100 µM.
As for `Cc1cc([N+](=O)[O-])ccc1NC(=O)Nc1cccc(F)c1` [Compound 55, N-(3-fluorophenyl)-N′-(2-methyl-4-nitrophenyl)urea], the inhibitory constant (Ki) is above 100 µM in assay [2] (o-NPA as substrate, Table 5, read-out: Ki hCE1); above 100 µM in assay [4] (acetylthiocholine substrate, Table 5, read-out: Ki hAcChE); 1.28 µM in assay [5] (o-NPA as substrate, Table 5, read-out: Ki hiCE).
